Tests used:
vitamin D-deficient rats = assay: Serum calcium in vitamin D-deficient hyperparathyroid rats, dosing thrice weekly for nearly four weeks; format: in vivo, Sprague-Dawley rats
Procedure: Oral Formulations. Cinacalcet was weighed and mixed with ethanol (at least 21 mcL ethanol/mg cinacalcet) for approximately 10 minutes. After a clear solution was produced, the clear solution was mixed with an ethanolic solution of 2MD or vitamin D analog as a control. The two ethanolic solutions were mixed (approx. 15 min.) with Neobee oil so that there was no more than 14.1% of ethanol in the final dosing solution. Doses were delivered in a 0.75 mL/kg dose volume.
Intravenous Formulations. Etelcalcitide was weighed and mixed with propylene glycol (up to 5 mg etelcalcitide/ml propylene glycol) for approximately 1 minute. After a clear solution was produced ([…]), the clear solution was mixed with an ethanolic solution of 2MD or vitamin D analog as a control (no more than ˜0.6% ethanol in the final solution) for approximately 1 min. Doses were delivered in a 1 mL/kg dose volume.
Sprague-Dawley rats were made vitamin D-deficient and then placed on a high containing lactose (10%) and elevated levels of calcium (2%) and phosphorus (1.25%). After hyperparathyroidism was established in the rats, animals were administered cinacalcet or etelcalcitide, 2MD or the combination of the two thrice weekly for nearly four weeks. Blood was collected 48-72 hours after the last dose was given and PTH (Immutopics Intact PTH kit) and serum calcium (Perkin Elmer) measured. […]

[1] = system: MRL/MpJ-FAS^1pr (MRL/lpr) mouse model of systemic lupus erythematosus; conditions: calcitriol administered through the diet; cited from earlier work

**Q.** Which “serum calcium, 2MD alone” value (vitamin D-deficient rats; 1 ng 2MD/kg bw) does the source give for C=C1[C@H](O)CC(=C/C=C2\CCC[C@@]3(C)C2CCC3[C@@H](C)CCCC(C)(C)O)C[C@H]1O (stereo partly drawn) [2MD, 2-methylene-19-nor-(20S)-1α,25-dihydroxyvitamin D3] here?
**A.** unaffected

**Q.** With C=C1/C(=C\C=C2/CCC[C@]3(C)[C@@H]([C@H](C)CCCC(C)(C)O)CC[C@@H]23)C[C@@H](O)C[C@@H]1O [calcitriol, 1α,25-(OH)2D3] as the molecule, how does the hypercalcemia accompanying treatment [1] read?
**A.** severe hypercalcemia always accompanied this treatment

**Q.** And the proteinuria [1]?
**A.** completely prevents proteinuria

**Q.** With C[C@@H](NCCCc1cccc(C(F)(F)F)c1)c1cccc2ccccc12 [cinacalcet, (R)—N-[1-(1-naphthyl)ethyl]-3-[3-(trifluoromethyl)phenyl] propan-1-amine] as the molecule, how does the “decrease of serum calcium, cinacalcet alone” value (vitamin D-deficient rats; cinacalcet alone) read?
**A.** 0.5 mg%
